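The compound was tested at five concentrations on cells cultured in 96-well plates, with a 48-hour exposure period. GI50 marks 50% less growth.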 Activity calls are given as the source filed them. Cut-off read from the data, not from the text of the source: active = GI50 up to about 1.1 µM and inactive = higher.
Tests used:
Test in all cases: NCI-60 cell line screen, 48 h
786-0 = tested on: 786-0
A498 = tested on: A498
A549 = tested on: A549
ACHN = tested on: ACHN
BT-549 = tested on: BT-549
CCRF-CEM = tested on: CCRF-CEM
COLO 205 = tested on: COLO 205
DU-145 = tested on: DU-145
EKVX = tested on: EKVX
HCC 2998 = tested on: HCC 2998
HCT-116 = tested on: HCT-116
HCT-15 = tested on: HCT-15
HL-60 = tested on: HL-60
HOP-62 = tested on: HOP-62
HOP-92 = tested on: HOP-92
HT-29 = tested on: HT-29
Hs-578T = tested on: Hs-578T
IGROV-1 = tested on: IGROV-1
K562 = tested on: K562
KM12 = tested on: KM12
LOX IMVI = tested on: LOX IMVI
M14 = tested on: M14
MCF7 = tested on: MCF7
MDA-MB-231 = tested on: MDA-MB-231
MDA-MB-435 = tested on: MDA-MB-435
MOLT-4 = tested on: MOLT-4
Malme-3M = tested on: Malme-3M
NCI-H226 = tested on: NCI-H226
NCI-H23 = tested on: NCI-H23
NCI-H460 = tested on: NCI-H460
NCI-H522 = tested on: NCI-H522
NCI/ADR-RES = tested on: NCI/ADR-RES
OVCAR-3 = tested on: OVCAR-3
OVCAR-4 = tested on: OVCAR-4
OVCAR-5 = tested on: OVCAR-5
OVCAR-8 = tested on: OVCAR-8
PC-3 = tested on: PC-3
RPMI-8226 = tested on: RPMI-8226
RXF 393 = tested on: RXF 393
SF-268 = tested on: SF-268
SF-295 = tested on: SF-295
SF-539 = tested on: SF-539
SK-MEL-28 = tested on: SK-MEL-28
SK-MEL-5 = tested on: SK-MEL-5
SK-OV-3 = tested on: SK-OV-3
SN12C = tested on: SN12C
SNB-19 = tested on: SNB-19
SR = tested on: SR
SW-620 = tested on: SW-620
T47D = tested on: T47D
TK-10 = tested on: TK-10
U-251 = tested on: U-251
UACC-257 = tested on: UACC-257
UACC-62 = tested on: UACC-62
UO-31 = tested on: UO-31
CAKI-1 = tested on: CAKI-1
MDA-N = tested on: MDA-N
SNB-75 = tested on: SNB-75
SK-MEL-2 = tested on: SK-MEL-2

Measured: GI50

NCCCNc1ccc2c(c1)[n+]([O-])c1ccccc1[n+]2[O-]
inactive: 786-0 29.2 µM | A498 17.2 µM | A549 31.5 µM | ACHN 21 µM | BT-549 13.6 µM | CCRF-CEM 22.4 µM | COLO 205 18.3 µM | DU-145 27 µM | EKVX 37.2 µM | HCC 2998 23.2 µM | HCT-116 17.3 µM | HL-60 19.7 µM | HOP-62 22.7 µM | HOP-92 12.7 µM | HT-29 28.6 µM | Hs-578T 18.5 µM | IGROV-1 12.7 µM | K562 26.4 µM | KM12 25.4 µM | LOX IMVI 7.14 µM | M14 13.8 µM | MCF7 13.9 µM | MDA-MB-231 19.9 µM | MDA-MB-435 31.8 µM | MOLT-4 15.7 µM | Malme-3M 17.4 µM | NCI-H226 12.3 µM | NCI-H23 35.5 µM | NCI-H460 15.7 µM | NCI-H522 13.6 µM | NCI/ADR-RES > 100 µM | OVCAR-3 19.8 µM | OVCAR-4 25 µM | OVCAR-5 28.4 µM | OVCAR-8 31.5 µM | PC-3 27.4 µM | RPMI-8226 17.6 µM | RXF 393 20.1 µM | SF-268 27.1 µM | SF-295 28.8 µM | SF-539 20.6 µM | SK-MEL-28 59.7 µM | SK-MEL-5 15.2 µM | SK-OV-3 14.2 µM | SN12C 26 µM | SNB-19 28.3 µM | SR 19.1 µM | SW-620 33 µM | T47D 22.7 µM | TK-10 28.4 µM | U-251 19.5 µM | UACC-257 27.2 µM | UACC-62 17.7 µM | UO-31 35.3 µM
22.9 µM: HCT-15

CC1=NC(=Cc2ccc([N+](=O)[O-])cc2)C(=O)N1n1c(-c2ccccc2)nc2ccccc2c1=O
inactive: 786-0 83 µM | A549 47.1 µM | BT-549 85.3 µM | CAKI-1 35.2 µM | CCRF-CEM 32.8 µM | COLO 205 46.6 µM | DU-145 51.8 µM | EKVX 45.5 µM | HCC 2998 57.9 µM | HCT-116 32.1 µM | HL-60 32.3 µM | HOP-62 60.1 µM | HT-29 37 µM | Hs-578T 50.2 µM | IGROV-1 53.6 µM | K562 40.6 µM | KM12 35.6 µM | LOX IMVI 34.7 µM | M14 46.7 µM | MCF7 29.1 µM | MDA-MB-231 63.7 µM | MDA-MB-435 47.6 µM | MDA-N 49 µM | MOLT-4 28.8 µM | Malme-3M 53.7 µM | NCI-H226 95.9 µM | NCI-H23 21.8 µM | NCI-H522 32.1 µM | OVCAR-8 36.6 µM | PC-3 39.7 µM | RPMI-8226 22.3 µM | SF-268 37.8 µM | SF-295 52 µM | SF-539 67.3 µM | SK-MEL-28 57.9 µM | SK-MEL-5 31.9 µM | SK-OV-3 68.9 µM | SN12C 52 µM | SNB-19 55.2 µM | SNB-75 15.7 µM | SR 35.2 µM | SW-620 36.7 µM | T47D 39.8 µM | TK-10 80.7 µM | UACC-257 42.9 µM | UACC-62 43.3 µM | UO-31 31.6 µM
43.1 µM: HCT-15

O=C(O)c1nc2ccc(C(F)(F)F)cc2nc1NCc1ccc(F)cc1
inactive: 786-0 14.9 µM | A498 23.7 µM | A549 19.1 µM | ACHN 27.2 µM | BT-549 25.9 µM | CAKI-1 37.8 µM | CCRF-CEM 37.3 µM | COLO 205 21.5 µM | DU-145 > 100 µM | EKVX 25.6 µM | HCC 2998 22.8 µM | HCT-116 15.9 µM | HOP-62 19.1 µM | HOP-92 17.1 µM | IGROV-1 25.4 µM | K562 19.6 µM | KM12 26.4 µM | LOX IMVI 15.6 µM | M14 18.5 µM | MCF7 22.9 µM | MDA-MB-231 32.4 µM | MDA-MB-435 > 100 µM | MDA-N 28 µM | MOLT-4 9.23 µM | NCI-H226 39.5 µM | NCI-H23 24 µM | NCI-H460 19.4 µM | NCI/ADR-RES 35.5 µM | OVCAR-3 8.34 µM | OVCAR-4 > 100 µM | OVCAR-5 22.4 µM | OVCAR-8 21.5 µM | PC-3 26.5 µM | RPMI-8226 21 µM | RXF 393 > 100 µM | SF-295 23.5 µM | SF-539 20.1 µM | SK-MEL-28 40.8 µM | SK-MEL-2 19.5 µM | SK-MEL-5 16.9 µM | SK-OV-3 31.7 µM | SN12C 17.5 µM | SNB-19 24.5 µM | SNB-75 35.2 µM | SR 15.3 µM | SW-620 33 µM | T47D 20.8 µM | U-251 16.7 µM | UACC-257 22.4 µM | UACC-62 15.9 µM | UO-31 2.75 µM
21.2 µM: HCT-15

O=C1/C(=C/c2cccc(O)c2)COc2ccccc21
active: HCC 2998 0.029 µM
1.42 µM: HCT-15
inactive: 786-0 4.69 µM | A498 20.3 µM | A549 20 µM | ACHN 1.78 µM | BT-549 15.5 µM | CAKI-1 3.44 µM | CCRF-CEM 1.59 µM | COLO 205 13.5 µM | DU-145 14.2 µM | EKVX 16.5 µM | HCT-116 1.75 µM | HL-60 4.5 µM | HOP-62 15 µM | HOP-92 16.9 µM | HT-29 3.27 µM | Hs-578T 9.77 µM | IGROV-1 7.96 µM | K562 2.78 µM | KM12 2.15 µM | LOX IMVI 1.95 µM | M14 4.27 µM | MCF7 3.63 µM | MDA-MB-231 8.2 µM | MDA-MB-435 5.73 µM | MOLT-4 2.24 µM | Malme-3M 8.89 µM | NCI-H226 11.4 µM | NCI-H23 5.74 µM | NCI-H460 20.8 µM | NCI-H522 2.51 µM | NCI/ADR-RES 2.17 µM | OVCAR-3 2.01 µM | OVCAR-4 5.32 µM | OVCAR-5 8.67 µM | OVCAR-8 7.38 µM | PC-3 7.83 µM | RPMI-8226 1.15 µM | RXF 393 10.1 µM | SF-268 18.4 µM | SF-295 15.7 µM | SF-539 9.86 µM | SK-MEL-28 4.45 µM | SK-MEL-2 18 µM | SK-MEL-5 9.2 µM | SK-OV-3 21.3 µM | SN12C 8.04 µM | SNB-19 7.11 µM | SNB-75 15.5 µM | SR 2.16 µM | SW-620 2.19 µM | T47D 6.47 µM | TK-10 15.4 µM | U-251 1.87 µM | UACC-257 2.64 µM | UACC-62 3.88 µM | UO-31 10.5 µM

O=C1/C(=C\c2cccc(Oc3ccccc3)c2)SC(c2ccccc2)N1c1cccc([N+](=O)[O-])c1 (stereo not drawn)
> 100 µM: HCT-15
inactive: 786-0 > 100 µM | A498 > 100 µM | A549 > 100 µM | ACHN > 100 µM | BT-549 > 100 µM | CAKI-1 > 100 µM | CCRF-CEM 21.7 µM | COLO 205 > 100 µM | DU-145 > 100 µM | EKVX > 100 µM | HCC 2998 > 100 µM | HCT-116 32.7 µM | HOP-62 > 100 µM | HOP-92 45.7 µM | HT-29 33.9 µM | Hs-578T 98.9 µM | K562 36.6 µM | KM12 72.1 µM | LOX IMVI 41.6 µM | M14 65 µM | MCF7 28.2 µM | MDA-MB-231 > 100 µM | MDA-MB-435 41.6 µM | MDA-N 33.9 µM | MOLT-4 40.7 µM | Malme-3M > 100 µM | NCI-H226 87.1 µM | NCI-H23 > 100 µM | NCI-H460 > 100 µM | NCI-H522 57.5 µM | NCI/ADR-RES 82.8 µM | OVCAR-3 > 100 µM | OVCAR-4 70.3 µM | OVCAR-5 > 100 µM | OVCAR-8 35.5 µM | RPMI-8226 34.7 µM | RXF 393 > 100 µM | SF-268 > 100 µM | SF-295 > 100 µM | SF-539 25.1 µM | SK-MEL-28 > 100 µM | SK-MEL-2 > 100 µM | SK-MEL-5 42.8 µM | SK-OV-3 > 100 µM | SN12C > 100 µM | SNB-19 65.3 µM | SR 32.3 µM | SW-620 56.4 µM | T47D > 100 µM | TK-10 > 100 µM | U-251 36.7 µM | UACC-257 97.3 µM | UACC-62 60.1 µM | UO-31 96.8 µM

— ChEMBL document CHEMBL1201862, “PubChem BioAssay data set” (2004)
